Numbered stars: 1 amine (or outer) side, 2 acyl side, 3 side chain; on linkers, the order of the positions; unused ones are H or OH. Square brackets hold non-standard residues; d marks the D form. Side chains are listed from the residue outwards. Peptide text beside a SMILES is read from it. * marks the point of attachment. C18 diacid = O=C(O)CCCCCCCCCCCCCCCCC(=O)*; γGlu = O=C(O)[C@H](CCC(=O)[*:2])N[*:1]; Ac4c = NC1(C(=O)O)CCC1; AEEA = NCCOCCOCC(=O)O; Aib = CC(C)(N)C(=O)O
Columns and labels:
[1] = Thioflavin T (ThT) fibrillation assay for physical stability; type: physicochemical; details: 250 μM in 10 mM HEPES buffer, pH 7.5, 37° C., shaking 960 rpm
Procedure, shortened: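 Fibrillation was followed by ThT (1 μM) fluorescence every 20 min, 444/485 nm, for 250 μM peptide in 10 mM HEPES pH 7.5 shaken at 960 rpm, 37° C. Lag time (t0−2τ) and apparent rate constant (1/τ) come from a sigmoidal fit. Recovery is % of initial concentration remaining soluble after centrifugation and filtration (RP-HPLC).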

[2] = Chemical stability assessment by RP-UPLC; type: physicochemical; details: 333 μM, 8 mM phosphate buffer pH 7.3, 37° C. vs 5° C.
Procedure, shortened: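 Purity loss = (purity after 14 days at 5° C. minus that at 37° C.) relative to the 5° C. value, purity being main-peak area % by RP-UPLC with UV at 215 nm. Samples were 333 μM in 8 mM phosphate, pH 7.3; gradient adjusted for outlying retention times.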

THT assay Lag time (Ex. 76) [1]	Purity loss; 14 days at 37° C. [2]	SMILES
45 h	2%	CC(C)C[C@H](NC(=O)[C@H](Cc1ccc(O)cc1)NC(=O)[C@H](CCCCN)NC(=O)[C@H](CO)NC(=O)[C@H](CC(C)C)NC(=O)[C@H](CC(=O)O)NC(=O)[C@H](CO)NC(=O)[C@@H](NC(=O)[C@H](Cc1ccccc1)NC(=O)[C@@H](NC(=O)CNC(=O)[C@H](CCC(N)=O)NC(=O)C(C)(C)NC(=O)[C@@H](N)Cc1c[nH]cn1)[C@@H](C)O)[C@@H](C)O)C(=O)N[C@@H](CC(=O)O)C(=O)N[C@@H](C)C(=O)N[C@@H](CCCNC(=N)N)C(=O)N[C@@H](CCCNC(=N)N)C(=O)N[C@@H](C)C(=O)N[C@@H](CCCNC(=N)N)C(=O)N[C@@H](CCC(=O)O)C(=O)N[C@@H](Cc1ccccc1)C(=O)N[C@H](C(=O)N[C@@H](CCC(N)=O)C(=O)N[C@@H](Cc1c[nH]c2ccccc12)C(=O)N[C@@H](CC(C)C)C(=O)N[C@@H](CC(C)C)C(=O)N[C@@H](CCCCNC(=O)CC[C@H](NC(=O)CC[C@H](NC(=O)COCCOCCNC(=O)COCCOCCNC(=O)CC[C@H](NC(=O)CCCCCCCCCCCCCCCCC(=O)O)C(=O)O)C(=O)O)C(=O)O)C(=O)N[C@H](C(N)=O)[C@@H](C)O)C(C)C [Example 43, N^ε28-[(4S)-4-carboxy-4-[[(4S)-4-carboxy-4-[[2-[2-[2-[[2-[2-[2-[[(4S)-4-carboxy-4-(17-carboxyheptadecanoylamino)butanoyl]amino]ethoxy]ethoxy]acetyl]amino]ethoxy]ethoxy]acetyl]amino]butanoyl]amino]butanoyl]-[Aib2,Leu10,Ala16,Arg20,Glu21,Leu27,Lys28]-Glucagon amide] (H-H[Aib]QGTFTSDLSKYLDARRAREFVQWLLK([γGlu-γGlu-AEEA-AEEA-γGlu-C18 diacid])T-NH2; N-terminus assumed)
45 h	2%	CC(C)C[C@H](NC(=O)[C@H](Cc1ccc(O)cc1)NC(=O)[C@H](CCCCN)NC(=O)[C@H](CO)NC(=O)[C@H](CC(C)C)NC(=O)[C@H](CC(=O)O)NC(=O)[C@H](CO)NC(=O)[C@@H](NC(=O)[C@H](Cc1ccccc1)NC(=O)[C@@H](NC(=O)CNC(=O)[C@H](CCC(N)=O)NC(=O)C1(NC(=O)[C@@H](N)Cc2c[nH]cn2)CCC1)[C@@H](C)O)[C@@H](C)O)C(=O)N[C@@H](CCC(=O)O)C(=O)N[C@@H](CO)C(=O)N[C@@H](CCCNC(=N)N)C(=O)N[C@@H](CCCNC(=N)N)C(=O)N[C@@H](C)C(=O)N[C@@H](CCCNC(=N)N)C(=O)N[C@@H](CCC(=O)O)C(=O)N[C@@H](Cc1ccccc1)C(=O)N[C@H](C(=O)N[C@@H](CCC(N)=O)C(=O)N[C@@H](Cc1c[nH]c2ccccc12)C(=O)N[C@@H](CC(C)C)C(=O)N[C@@H](CC(C)C)C(=O)N[C@@H](CCCCNC(=O)CC[C@H](NC(=O)CC[C@H](NC(=O)COCCOCCNC(=O)COCCOCCNC(=O)CC[C@H](NC(=O)CCCCCCCCCCCCCCCCC(=O)O)C(=O)O)C(=O)O)C(=O)O)C(=O)N[C@H](C(N)=O)[C@@H](C)O)C(C)C [Example 44, N^ε28-[(4S)-4-carboxy-4-[[(4S)-4-carboxy-4-[[2-[2-[2-[[2-[2-[2-[[(4S)-4-carboxy-4-(17-carboxyheptadecanoylamino)butanoyl]amino]ethoxy]ethoxy]acetyl]amino]ethoxy]ethoxy]acetyl]amino]butanoyl]amino]butanoyl]-[Acb2,Leu10,Glu15,Arg20,Glu21,Leu27,Lys28]-Glucagon amide] (H-H[Ac4c]QGTFTSDLSKYLESRRAREFVQWLLK([γGlu-γGlu-AEEA-AEEA-γGlu-C18 diacid])T-NH2; N-terminus assumed)
45 h	3%	CC(C)C[C@H](NC(=O)[C@H](CC(=O)O)NC(=O)[C@H](CC(C)C)NC(=O)[C@H](Cc1ccc(O)cc1)NC(=O)[C@H](CCCCN)NC(=O)[C@H](CO)NC(=O)[C@H](CC(C)C)NC(=O)[C@H](CC(=O)O)NC(=O)[C@H](CO)NC(=O)[C@@H](NC(=O)[C@H](Cc1ccccc1)NC(=O)[C@@H](NC(=O)CNC(=O)[C@H](CCC(N)=O)NC(=O)C1(NC(=O)[C@@H](N)Cc2c[nH]cn2)CCC1)[C@@H](C)O)[C@@H](C)O)C(=O)N[C@@H](CCCNC(=N)N)C(=O)N[C@@H](CCCNC(=N)N)C(=O)N[C@@H](C)C(=O)N[C@@H](CCCNC(=N)N)C(=O)N[C@@H](CC(=O)O)C(=O)N[C@@H](Cc1ccccc1)C(=O)N[C@H](C(=O)N[C@@H](CCC(N)=O)C(=O)N[C@@H](Cc1c[nH]c2ccccc12)C(=O)N[C@@H](CC(C)C)C(=O)N[C@@H](CC(C)C)C(=O)N[C@@H](CCCCNC(=O)CC[C@H](NC(=O)CC[C@H](NC(=O)COCCOCCNC(=O)COCCOCCNC(=O)CC[C@H](NC(=O)CC[C@H](NC(=O)CCCCCCCCCCCCCCCCC(=O)O)C(=O)O)C(=O)O)C(=O)O)C(=O)O)C(=O)N[C@H](C(N)=O)[C@@H](C)O)C(C)C [Example 45, N^ε28-[(4S)-4-carboxy-4-[[(4S)-4-carboxy-4-[[2-[2-[2-[[2-[2-[2-[[(4S)-4-carboxy-4-[[(4S)-4-carboxy-4-(17-carboxyheptadecanoylamino)butanoyl]amino]butanoyl]amino]ethoxy]ethoxy]acetyl]amino]ethoxy]ethoxy]acetyl]amino]butanoyl]amino]butanoyl]-[Acb2,Leu10,Leu16,Arg20,Leu27,Lys28]-Glucagon amide] (H-H[Ac4c]QGTFTSDLSKYLDLRRARDFVQWLLK([γGlu-γGlu-AEEA-AEEA-γGlu-γGlu-C18 diacid])T-NH2; N-terminus assumed)
45 h	1%	CC(C)C[C@H](NC(=O)[C@H](CC(=O)O)NC(=O)[C@H](CC(C)C)NC(=O)[C@H](Cc1ccc(O)cc1)NC(=O)[C@H](CCCNC(=N)N)NC(=O)[C@H](CO)NC(=O)[C@H](CC(C)C)NC(=O)[C@H](CC(=O)O)NC(=O)[C@H](CO)NC(=O)[C@@H](NC(=O)[C@H](Cc1ccccc1)NC(=O)[C@@H](NC(=O)CNC(=O)[C@H](CCC(N)=O)NC(=O)C1(NC(=O)[C@@H](N)Cc2c[nH]cn2)CCC1)[C@@H](C)O)[C@@H](C)O)C(=O)N[C@@H](CCCNC(=N)N)C(=O)N[C@@H](CCCNC(=N)N)C(=O)N[C@@H](C)C(=O)N[C@@H](CCCNC(=N)N)C(=O)N[C@@H](CC(=O)O)C(=O)N[C@@H](Cc1ccccc1)C(=O)N[C@H](C(=O)N[C@@H](CCC(N)=O)C(=O)N[C@@H](Cc1c[nH]c2ccccc12)C(=O)N[C@@H](CC(C)C)C(=O)N[C@@H](CC(C)C)C(=O)N[C@@H](CCCCNC(=O)CC[C@H](NC(=O)CC[C@H](NC(=O)COCCOCCNC(=O)COCCOCCNC(=O)CC[C@H](NC(=O)CC[C@H](NC(=O)CCCCCCCCCCCCCCCCC(=O)O)C(=O)O)C(=O)O)C(=O)O)C(=O)O)C(=O)N[C@H](C(N)=O)[C@@H](C)O)C(C)C [Example 46, N^ε28-[(4S)-4-carboxy-4-[[(4S)-4-carboxy-4-[[2-[2-[2-[[2-[2-[2-[[(4S)-4-carboxy-4-[[(4S)-4-carboxy-4-(17-carboxyheptadecanoylamino)butanoyl]amino]butanoyl]amino]ethoxy]ethoxy]acetyl]amino]ethoxy]ethoxy]acetyl]amino]butanoyl]amino]butanoyl]-[Acb2,Leu10,Arg12,Leu16,Arg20,Leu27,Lys28]-Glucagon amide] (H-H[Ac4c]QGTFTSDLSRYLDLRRARDFVQWLLK([γGlu-γGlu-AEEA-AEEA-γGlu-γGlu-C18 diacid])T-NH2; N-terminus assumed)
45 h	3%	CC(C)C[C@H](NC(=O)[C@H](CC(=O)O)NC(=O)[C@H](CC(C)C)NC(=O)[C@H](Cc1ccc(O)cc1)NC(=O)[C@H](CCCCN)NC(=O)[C@H](CO)NC(=O)[C@H](CC(C)C)NC(=O)[C@H](CC(=O)O)NC(=O)[C@H](CO)NC(=O)[C@@H](NC(=O)[C@H](Cc1ccccc1)NC(=O)[C@@H](NC(=O)CNC(=O)[C@H](CCC(N)=O)NC(=O)C1(NC(=O)[C@@H](N)Cc2c[nH]cn2)CCC1)[C@@H](C)O)[C@@H](C)O)C(=O)N[C@@H](CCCCN)C(=O)N[C@@H](CCCNC(=N)N)C(=O)N[C@@H](C)C(=O)N[C@@H](CCCNC(=N)N)C(=O)N[C@@H](CCC(=O)O)C(=O)N[C@@H](Cc1ccccc1)C(=O)N[C@H](C(=O)N[C@@H](CCC(N)=O)C(=O)N[C@@H](Cc1c[nH]c2ccccc12)C(=O)N[C@@H](CC(C)C)C(=O)N[C@@H](CC(C)C)C(=O)N[C@@H](CCCCNC(=O)CC[C@H](NC(=O)CC[C@H](NC(=O)COCCOCCNC(=O)COCCOCCNC(=O)CC[C@H](NC(=O)CC[C@H](NC(=O)CCCCCCCCCCCCCCCCC(=O)O)C(=O)O)C(=O)O)C(=O)O)C(=O)O)C(=O)N[C@H](C(N)=O)[C@@H](C)O)C(C)C [Example 47, N^ε28-[(4S)-4-carboxy-4-[[(4S)-4-carboxy-4-[[2-[2-[2-[[2-[2-[2-[[(4S)-4-carboxy-4-[[(4S)-4-carboxy-4-(17-carboxyheptadecanoylamino)butanoyl]amino]butanoyl]amino]ethoxy]ethoxy]acetyl]amino]ethoxy]ethoxy]acetyl]amino]butanoyl]amino]butanoyl]-[Acb2,Leu10,Leu16,Lys17,Arg20,Glu21,Leu27,Lys28]-Glucagon amide] (H-H[Ac4c]QGTFTSDLSKYLDLKRAREFVQWLLK([γGlu-γGlu-AEEA-AEEA-γGlu-γGlu-C18 diacid])T-NH2; N-terminus assumed)

From patent US9474790B2, “Stable, protracted GLP-1/glucagon receptor co-agonists for medical use” (Novo Nordisk A/S, priority 2013, dated 2016)
